Consider 20 compounds from the C3SDB collision cross section collection.

The conditions of data set [1]: instrument: TW, calibrated with phosphatidylcholines (ESI+) and phosphatidylethanolamines (ESI-).
For data set [2] the following is noted: instrument: TW, calibrated with phosphatidylcholines (ESI+) and phosphatidylethanolamines (ESI-), doubly charged cardiolipins calibrated with poly-DL-….

Molecules are shown by their SMILES.

Take `CCCCCCCCCCCCCCCCCC(=O)N[C@@H](CO)[C@H](O)CCCCCCCCCCCCCCC` [Cer(d18:0/18:0)]: the “collision cross section (N2)” value in data set [1] ([M+H]+) is listed as 263.1 Å².
Turning to `CCCCCCCCCCCCCCCCCCCC(=O)N[C@@H](CO)[C@H](O)CCCCCCCCCCCCCCC` [Cer(d18:0/20:0)], the “collision cross section (N2)” value in data set [1] ([M+H]+) is 269.1 Å².
For `CCCCCCCCCCCCC=CC[C@@H](O)[C@H](CO)NC(=O)CC=CCCCCCCCCCCCCCCCCCC` [Cer(d18:1/22:1)], the “collision cross section (N2)” value came out at 270.2 Å² in data set [1] ([M+H]+) and 260.2 Å² in data set [1] ([M-H]-).
Take `CCCCCCCCCCCCC=CC[C@@H](O)[C@H](CO)NC(=O)CC=CCCCCCCCCCCCCCCCCCCCCCC` [Cer(d18:1/26:1)]: the “collision cross section (N2)” value in data set [1] ([M+H]+) worked out at 282.4 Å².
On the same count and under the same terms, the value for `CCCCCCCCCCCCC=CC[C@@H](O)[C@H](CO[C@@H]1O[C@H](CO)[C@@H](O)C(O)C1O)NC(=O)CC=CCCCCCCCCCCCCCC` (stereo partly drawn) [GlcCer(d18:1/18:1)] was 281.8 Å².
As for `CCCCCC/C=C/CCCCCCCC(=O)OC[C@@H](O)COP(=O)(O)OCC(O)CO` (stereo partly drawn) [LPG(16:1)], the “collision cross section (N2)” value in data set [2] ([M-H]-) amounted to 210.68 Å².
Still for that read-out and setting: the value for `CCCCCCCCC1CC1CCCCCCCC(=O)O[C@H](CO)COP(=O)(O)OCC(O)CO` (stereo partly drawn) [LPG(19:1)] was 220.89 Å².
The same measure, in the same setting: the value for `CCCCCC/C=C\CCCCCCCC(=O)OCC(COP(=O)(O)O)OC(=O)CCCCCCCCCCCCCCC` (stereo not drawn) [PA(32:1)] was 249.02 Å².
For `CCCCCCCC/C=C\CCCCCCCC(=O)OC(COC(=O)CCCCCCCCCCCCCCC)COP(=O)(O)O` (stereo not drawn) [PA(34:1)], in data set [2] ([M-H]-), the “collision cross section (N2)” value stood at 255.63 Å².
As to `CCCCCC/C=C\CCCCCCCC(=O)OCC(COP(=O)(O)O)OC(=O)CCCCCCC/C=C\CCCCCCCC` (stereo not drawn) [PA(34:2)], the “collision cross section (N2)” value in data set [2] ([M-H]-) turned out to be 253.68 Å².
Same read-out and setting: the value for `CCCCCCCC/C=C\CCCCCCCC(=O)OCC(COP(=O)(O)O)OC(=O)CCCCCCC/C=C\CCCCCCCC` (stereo not drawn) [PA(36:2)] was 259.86 Å².
For `CCCCCCCCCCCCCCCC(=O)OCC(COP(=O)(O)OCCN)OC(=O)CCCCCCCC1CC1CCCC` (stereo not drawn) [PE(31:1)], the “collision cross section (N2)” value in data set [2] ([M+H]+) turned out to be 265.08 Å²; in data set [2] ([M-H]-), 252.34 Å².
The corresponding values for `CCCCCCCCCCCCCCCC(=O)OCC(COP(=O)(O)OCCN)OC(=O)CCCCCCCCCCCCCCC` (stereo not drawn) [PE(32:0)] are 272.49 Å² and 257.29 Å².
The corresponding values for `CCCCCC/C=C\CCCCCCCC(=O)OCC(COP(=O)(O)OCCN)OC(=O)CCCCCCCC1CC1CCCCCCCC` (stereo not drawn) [PE(35:2)] are 275.82 Å² and 265.69 Å².
With `CCCCCCCC/C=C\CCCCCCCC(=O)OC(COC(=O)CCCCCCCCCCCCCCCCC)COP(=O)(O)OCCN` (stereo not drawn) [PE(36:1)], the “collision cross section (N2)” value is 280.06 Å² in data set [2] ([M+H]+) and 270.25 Å² in data set [2] ([M-H]-).
For the compound `CCCCCC/C=C\CCCCCCCC(=O)OCC(COP(=O)(O)OCC(O)CO)OC(=O)CCCCCCCCCCCCC` (stereo not drawn) [PG(30:1)], in data set [2] ([M+Na]+), the “collision cross section (N2)” value came to 268.07 Å².
Regarding `CCCCCC/C=C\CCCCCCCC(=O)OCC(COP(=O)(O)OCC(O)CO)OC(=O)CCCCCCC/C=C\CCCCCC` (stereo not drawn) [PG(32:2)], the results for the “collision cross section (N2)” value in data set [2] ([M+Na]+) and in data set [2] ([M-H]-) were 272.38 Å² and 261.31 Å², respectively.
The corresponding values for `CCCCCCCCCCCCCCCC(=O)OCC(COP(=O)(O)OCC(O)CO)OC(=O)CCCCCCCC1CC1CCCCCC` (stereo not drawn) [PG(33:1)] are 280.56 Å² and 266.36 Å².
The corresponding values for `CCCCCCCC/C=C\CCCCCCCC(=O)OC(COC(=O)CCCCCCCCCCCCCCC)COP(=O)(O)OCC(O)CO` (stereo not drawn) [PG(34:1)] are 281.03 Å² and 270.03 Å².
For the compound `CCCCCCCC/C=C\CCCCCCCC(=O)OC(COC(=O)CCCCCCCCCCCCCCCCC)COP(=O)(O)OCC(O)CO` (stereo not drawn) [PG(36:1)], the “collision cross section (N2)” value in data set [2] ([M-H]-) is on record as 276.25 Å².
